Patent US6670355B2, “Method of treating cardiovascular disease” (Wyeth, priority 2000, dated 2003)
Values joined by “and” are separate entries in the source; they are usually repeats but may differ in a detail not shown here. Equal values may be shown once.

Tested on: ApoE knockout (EKO) mice
Test: standard pharmacological test procedure for atherosclerosis in ApoE knockout (EKO) mice: plasma lipids and aortic arch lesions
Format: in vivo
Details: for Aortic Atherosclerosis (% lesion involvement as assessed by lpipd staining): aortic arch, Oil Red O; for Aortic Atherosclerosis (% lesion involvement as assessed by lpipd staining) / HDL-C / LDL-C / Total Cholesterol / Triglycerides / VLDL-C: Western Diet, mean ± S.E.; for HDL-C / LDL-C / Total Cholesterol / Triglycerides / VLDL-C: plasma
Excerpt: The ability of the rapamycins of this invention to treat or inhibit cardiovascular disease or peripheral vascular disease was confirmed in a standard pharmacological test procedure using ApoE knockout (EKO) mice, which are a well accepted animal model of human atherosclerosis. In this test procedure, rapamycin was used a representative example of a rapamycin of this invention. The procedure used, and results obtained are briefly summarized below.
Male EKO mice, 4-6 weeks of age, were housed in shoe-box cages and were allowed ad lib food and water. The animals were randomized by weight into 5 groups (N=12-15 mice per group) and were fed Purina Rodent Chow for the first week of the study. Also during this period as well as the remaining 12 weeks of the study, the animals were dosed every 2 days with 0, 1, 2, 4 or 8 mg/kg rapamycin s.c. using 2% Tween-80, 1% carboxymethyl cellulose as the vehicle and Control. The animal diet was switched to a casein-based Western Diet for week 2 to week 13 of the study. At the end of the study period, the animals were euthanized, plasma samples obtained, and the hearts perfused first with saline, then with 10% formalin. Total cholesterol and triglycerides were determined using enzymatic methods with commercially-available kits from Boehringer Mannheim and Wako Biochemicals, respectively, and the Boehringer Mannheim Hitachii 911 Analyzer (Boehringer Mannheim Diagnostic Laboratory Systems, Indianapolis, Ind.). Separation and quantification of plasma lipoproteins were performed using FPLC size fractionation. Briefly, […] of serum was filtered and injected into two Superose 6 columns (Amersham Pharmacia Biotech, UK, Ltd) connected in series and eluted at a constant flow rate with 1 mM sodium EDTA and 0.15 M NaCl. Areas of each curve representing VLDL, LDL and HDL were integrated using Millennium software (Waters Technologies Corporation), and each lipoprotein fraction was quantified by multiplying the Total Cholesterol value by the relative percent area of each respective peak. The aortas were carefully isolated and remained in the formalin fixative for 48-72 hours before handling. Atherosclerotic lesions were identified by Oil Red O staining, a well accepted procedure for identifying accumulation of neutral lipids such as cholesterols and triglycerides. The vessels were destained, and then imaged using a Nikon SMU800 microscope fitted with a Sony 3CCD video camera system in concert with IMAQ Configuration Utility (National Instrument) as the image capturing software. The lesions were quantified along the aortic arch using a custom threshold utility software package designed by Robert Coll (Coleman Technologies). Automated lesion assessment was performed on the vessels using the threshold function of the program, specifically on the region contained within the aortic arch from the proximal edge of the Right Common Carotid artery to the distal edge of the Left Subclavian artery. Aortic atherosclerosis data were expressed as percent lesion (lipid) involvement strictly within this defined luminal area. Statistical significance between the Control and treated groups was determined using the Dunnett's Test at 1% significance level (p<0.01).

For `CO[C@H]1C[C@@H]2CC[C@@H](C)[C@@](O)(O2)C(=O)C(=O)N2CCCC[C@H]2C(=O)O[C@H]([C@H](C)C[C@@H]2CC[C@@H](O)[C@H](OC)C2)CC(=O)[C@H](C)/C=C(\C)[C@@H](O)[C@@H](OC)C(=O)[C@H](C)C[C@H](C)/C=C/C=C/C=C/1C` [rapamycin], the “area of aorta containing fat” value (1, 2, 4, or 8-mg/kg qod for 12 weeks) was 12-16%, the “Aortic Atherosclerosis (% lesion involvement as assessed by lpipd staining)” value (1 mg/kg s.c. every 2 days, 1 mg/kg) was 21.6% and 21.6 ± 3.1 % and the “Aortic Atherosclerosis (% lesion involvement as assessed by lpipd staining)” value (2 mg/kg s.c. every 2 days, 2 mg/kg) was 14.9 ± 3.1 %. The “Aortic Atherosclerosis (% lesion involvement as assessed by lpipd staining)” value (4 mg/kg s.c. every 2 days, 4 mg/kg) was 16% and 16.4 ± 2.8 %, the “Aortic Atherosclerosis (% lesion involvement as assessed by lpipd staining)” value (8 mg/kg s.c. every 2 days, 8 mg/kg) was 12% and 12.03 ± 2.3 % and the “effect on VLDL-cholesterol” value (compared with control EKO mice) was “not significantly affecting”. For the same compound, the “effect on circulating plasma HDL-cholesterol” value (compared with control EKO mice) was “significantly (p<0.01) increased”, the “effect on circulating plasma LDL-cholesterol” value (compared with control EKO mice) was “significantly (p<0.01) increased” and the “effect on total cholesterol” value (compared with control EKO mice) was “not significantly affecting”. The effect on triglycerides (compared with control EKO mice) was “not significantly affecting”, the HDL-C (1 mg/kg s.c. every 2 days) was 23 ± 6 mg/dL and the LDL-C (1 mg/kg s.c. every 2 days) was 508 ± 18 mg/dL. The “Total Cholesterol” value (1 mg/kg s.c. every 2 days) was 1434 ± 35 mg/dL, the Triglycerides (1 mg/kg s.c. every 2 days) was 132 ± 16 mg/dL and the VLDL-C (1 mg/kg s.c. every 2 days) was 903 ± 34 mg/dL. The HDL-C (2 mg/kg s.c. every 2 days) was 31 ± 5 mg/dL, the LDL-C (2 mg/kg s.c. every 2 days) was 517 ± 18 mg/dL and the “Total Cholesterol” value (2 mg/kg s.c. every 2 days) was 1311 ± 80 mg/dL. It also gave a Triglycerides (2 mg/kg s.c. every 2 days) of 143 ± 20 mg/dL, a VLDL-C (2 mg/kg s.c. every 2 days) of 763 ± 64 mg/dL and an HDL-C (4 mg/kg s.c. every 2 days) of 38 ± 5 mg/dL. For the same compound, the LDL-C (4 mg/kg s.c. every 2 days) was 494 ± 10 mg/dL, the “Total Cholesterol” value (4 mg/kg s.c. every 2 days) was 1281 ± 58 mg/dL and the Triglycerides (4 mg/kg s.c. every 2 days) was 136 ± 12 mg/dL. The VLDL-C (4 mg/kg s.c. every 2 days) was 749 ± 58 mg/dL, the HDL-C (8 mg/kg s.c. every 2 days) was 49 ± 3 mg/dL and the LDL-C (8 mg/kg s.c. every 2 days) was 475 ± 21 mg/dL. The “Total Cholesterol” value (8 mg/kg s.c. every 2 days) was 1167 ± 75 mg/dL, the Triglycerides (8 mg/kg s.c. every 2 days) was 134 ± 9 mg/dL and the VLDL-C (8 mg/kg s.c. every 2 days) was 644 ± 58 mg/dL. The circulating total cholesterol (rapamycin treated animals, 1, 2, 4, or 8-mg/kg qod for 12 weeks) was 1300 to 1500 mg/dL and the “reduction in aortic atherosclerosis” value (rapamycin treated vs Control EKO mice) was “three-fold reduction”.
